Assay results published in patent US10022461B2, “Pyrrolo[2,3-C]pyridines as imaging agents for neurofibrilary tangles” (MERCK SHARP & DOHME CORP., priority 2014, dated 2018).

Target: tau (Homo sapiens, UniProt P10636)
Experiment: displacement tau binding assay in AD brain homogenates with [^3H]-6
Method: The frozen human brain samples of Alzheimer's disease (AD) were purchased from Analytic Biological Services Inc. They were postmortem tissue from donors with clinical diagnosis of AD. As much of the white matter was dissected out of the frontal cortex in order to enrich the tissue preparations for gray matter. Brain homogenates of gray matter enriched frontal cortex were prepared by homogenizing the tissue in ice cold Phosphate Buffered Saline (PBS), pH 7.4 at 80 mg wet weight tissue per 1 mL for 45 seconds at 4° C. on setting 16 of Polytron. The homogenate was further diluted with ice cold PBS to 30 mg wet weight tissue per 1 mL and homogenized for an additional minute as described above. Homogenates were aliquoted in 5 ml/tube and store at −70° C. until use. […] Brain homogenates were diluted to 0.5 mg/mL from original 30 mg/mL volume in Assay Buffer, and 200 μl were added to the assay plate for a final concentration of 100 μg wet weight/assay tube. [^3H]-6 was prepared at […] final concentration in Assay Buffer plus 20% DMSO and 25 μl was added to the assay plate for final assay concentration of 0.25 nM. The assay plate was incubated at room temperature (25° C.) for 90 minutes. […] Filter plates were dried for 1 hour in a vacuum oven and 50 μl/well MicroScint-20 were added. Plates were counted 1 min per well by Packard Topcount. Total amount of radioligand used in the assay was determined by counting 25 μl of 10× ligand stock. […] Tau Ki data for representative compounds of the invention are found in Table 1.

[1] = Table 1, displacement of [^3H]-6 (0.25 nM)
[2] = Table 2, displacement of [^3H]-6 (0.25 nM)

Sequence of tau (P10636 2-758 limits assumed): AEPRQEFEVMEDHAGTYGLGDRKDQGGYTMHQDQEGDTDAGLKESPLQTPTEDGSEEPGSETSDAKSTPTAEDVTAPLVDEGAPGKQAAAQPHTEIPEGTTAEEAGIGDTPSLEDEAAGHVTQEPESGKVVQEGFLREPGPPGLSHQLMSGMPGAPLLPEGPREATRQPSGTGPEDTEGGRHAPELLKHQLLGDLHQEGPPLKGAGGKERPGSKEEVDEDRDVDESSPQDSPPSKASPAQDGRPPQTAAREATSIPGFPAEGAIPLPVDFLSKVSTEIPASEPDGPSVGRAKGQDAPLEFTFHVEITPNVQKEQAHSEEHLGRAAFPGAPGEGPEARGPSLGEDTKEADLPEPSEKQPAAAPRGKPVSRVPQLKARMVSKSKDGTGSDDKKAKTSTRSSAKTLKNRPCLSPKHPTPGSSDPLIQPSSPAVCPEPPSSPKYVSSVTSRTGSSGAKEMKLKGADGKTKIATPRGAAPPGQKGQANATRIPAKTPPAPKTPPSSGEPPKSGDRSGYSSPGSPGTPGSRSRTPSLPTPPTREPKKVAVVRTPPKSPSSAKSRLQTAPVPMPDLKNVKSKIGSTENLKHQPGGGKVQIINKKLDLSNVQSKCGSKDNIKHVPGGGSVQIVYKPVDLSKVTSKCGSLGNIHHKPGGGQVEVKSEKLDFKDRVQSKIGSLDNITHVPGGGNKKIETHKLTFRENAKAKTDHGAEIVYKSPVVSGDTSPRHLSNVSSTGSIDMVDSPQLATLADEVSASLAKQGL

Ki [1]	Ki [2]	Compound
2.28 nM	–	CN(CCF)c1ccc2cnc(-n3ccc4ccncc43)cc2c1 [Compound 14, N-(2-fluoroethyl)-N-methyl-3-(1H-pyrrolo[2,3-c]pyridin-1-yl)isoquinolin-6-amine]
–	0.494 nM	Nc1cc(F)c2cc(-n3ccc4ccncc43)ncc2c1 [Compound 114]
1.05 nM	–	Fc1cccc2cnc(-n3ccc4ccncc43)cc12 [Compound 54]
0.48 nM	–	c1cc2ccn(-c3cc4cc[nH]c4cn3)c2cn1 [Compound 8, 1-(1H-pyrrolo[2,3-c]pyridin-5-yl)-1H-pyrrolo[2,3-c]pyridine]
–	93.8 nM	Nc1ccc(I)c2cc(-n3ccc4ccncc43)ncc12 [Compound 120]
2.23 nM	–	CN(C)c1ccc2cnc(-n3ccc4ccncc43)cc2c1 [Compound 61]
44.4 nM	–	COc1cccc2cnc(-n3ccc4ccncc43)cc12 [Compound 70]
2.1 nM	–	Cc1cc2cnc(-n3ccc4ccncc43)cc2o1 [Compound 23, 2-methyl-6-(1H-pyrrolo[2,3-c]pyridin-1-yl)furo[3,2-c]pyridine]
0.33 nM	–	CNc1ccc2cnc(-n3ccc4ccncc43)cc2c1 [Compound 14-1, N-methyl-3-(1H-pyrrolo[2,3-c]pyridin-1-yl)isoquinolin-6-amine]
2.98 nM	–	Cc1cc(-n2ccc3ccncc32)ncc1OCCF [Compound 32, 1-(5-(2-fluoroethoxy)-4-methylpyridin-2-yl)-1H-pyrrolo[2,3-c]pyridine]
–	0.224 nM	Nc1cc(F)cc2cnc(-n3ccc4ccncc43)cc12 [Compound 115]
–	18.6 nM	Nc1cc(I)c2cnc(-n3ccc4ccncc43)cc2c1 [Compound 125]
–	0.423 nM	Nc1cc2cc(-n3ccc4ccncc43)ncc2cc1F [Compound 109]
1.32 nM	–	Cn1cc(-c2ccc(-n3ccc4ccncc43)nc2)cn1 [Compound 58]
1.41 nM	–	Fc1cccc(-c2ccc(-n3ccc4ccncc43)nc2)n1 [Compound 91]
71.1 nM	–	OC1CCN(c2ccc(-n3ccc4ccncc43)nc2)CC1 [Compound 42, 1-(6-(1H-pyrrolo[2,3-c]pyridin-1-yl)pyridin-3-yl)piperidin-4-ol]
0.4 nM	–	Nc1cccc2cnc(-n3ccc4ccncc43)cc12 [Compound 11-5, 3-(1H-pyrrolo[2,3-c]pyridin-1-yl)isoquinolin-5-amine]
1.02 nM	–	c1cc2ccn(-c3ccc(-c4cncs4)cn3)c2cn1 [Compound 53]
1.4 nM	–	CCNc1cc(-c2ccc(-n3ccc4ccncc43)nc2)ccn1 [Compound 94]
–	0.438 nM	Nc1c(I)ccc2cnc(-n3ccc4ccncc43)cc12 [Compound 119]
10.8 nM	–	c1cc2ccn(-c3cc4c(cn3)CCCN4)c2cn1 [Compound 39, 7-(1H-pyrrolo[2,3-c]pyridin-1-yl)-1,2,3,4-tetrahydro-1,6-naphthyridine]
2.55 nM	–	Fc1ccc2nc(-n3ccc4ccncc43)ncc2c1 [Compound 62]
–	6.21 nM	Nc1cc(I)c2cc(-n3ccc4ccncc43)ncc2c1 [Compound 128]
0.53 nM	–	Oc1ccc2cc(-n3ccc4ccncc43)ncc2c1 [Compound 15, 3-(1H-pyrrolo[2,3-c]pyridin-1-yl)isoquinolin-7-ol]
–	1.77 nM	Nc1ccc2cc(-n3ccc4ccncc43)ncc2c1I [Compound 122]

Ki [1]	Ki [2]	Compound
–	1.09 nM	Nc1ccc2cnc(-n3ccc4ccncc43)cc2c1F [Compound 111]
12.8 nM	–	FCOc1ccc2nc(-n3ccc4ccncc43)ncc2c1 [Compound 24, 6-(fluoromethoxy)-2-(1H-pyrrolo[2,3-c]pyridin-1-yl)quinazoline]
–	10000 nM	Nc1cccc2cnc(-n3ccc4cc(F)ncc43)cc12 [Compound 106]
3.19 nM	–	FCCCNc1ccc(-n2ccc3ccncc32)nc1 [Compound 35, N-(3-fluoropropyl)-6-(1H-pyrrolo[2,3-c]pyridin-1-yl)pyridin-3-amine]
0.22 nM	–	Fc1ccc2cnc(-n3ccc4ccncc43)cc2c1 [Compound 9, 6-fluoro-3-(1H-pyrrolo[2,3-c]pyridin-1-yl)isoquinoline]
1.71 nM	–	FCCn1ccc(-c2ccc(-n3ccc4ccncc43)nc2)n1 [Compound 104, 1-(5-(1-(2-fluoroethyl)-1H-pyrazol-3-yl)pyridin-2-yl)-1H-pyrrolo[2,3-c]pyridine]
4.07 nM	–	CN(CCO)c1ccc2cnc(-n3ccc4ccncc43)cc2c1 [Compound 66]
2.27 nM	–	c1cc2cnc(-n3ccc4ccncc43)cc2cn1 [Compound 26, 3-(1H-pyrrolo[2,3-c]pyridin-1-yl)-2,6-naphthyridine]
1.65 nM	–	FCC#Cc1ccc(-n2ccc3ccncc32)nc1 [Compound 7, 1-(5-(3-fluoroprop-1-ynyl)pyridin-2-yl)-1H-pyrrolo[2,3-c]pyridine]
1.16 nM	–	Oc1cccc2cc(-n3ccc4ccncc43)ncc12 [Compound 56]
2.04 nM	–	Fc1ccc(-c2ccc(-n3ccc4ccncc43)nc2)cn1 [Compound 60]
–	0.677 nM	Nc1ccc2cc(-n3ccc4ccncc43)ncc2c1F [Compound 108]
–	2.15 nM	Nc1c(F)ccc2cc(-n3ccc4ccncc43)ncc12 [Compound 110]
0.75 nM	–	C#Cc1cnc(-n2ccc3ccncc32)cc1C [Compound 50]
0.67 nM	–	Oc1cccc2cnc(-n3ccc4ccncc43)cc12 [Compound 49]
–	0.784 nM	Nc1cc(F)c2cnc(-n3ccc4ccncc43)cc2c1 [Compound 113]
3.35 nM	–	CC#Cc1cnc(-n2ccc3ccncc32)cc1CO [Compound 21-4, (5-(prop-1-ynyl)-2-(1H-pyrrolo[2,3-c]pyridin-1-yl)pyridin-4-yl)methanol]
–	0.383 nM	Nc1cc2cnc(-n3ccc4ccncc43)cc2cc1F [Compound 105, 6-fluoro-3-(1H-pyrrolo[2,3-c]pyridin-1-yl)isoquinolin-7-amine]
–	208 nM	Nc1ccc(I)c2cnc(-n3ccc4ccncc43)cc12 [Compound 123]
0.87 nM	–	Cc1cc(-n2ccc3ccncc32)ncc1C#CCF [Compound 51]
0.43 nM	–	FCOc1ccc2cc(-n3ccc4ccncc43)ncc2c1 [Compound 17, 7-(fluoromethoxy)-3-(1H-pyrrolo[2,3-c]pyridin-1-yl)isoquinoline]
0.55 nM	–	Nc1cc(-c2ccc(-n3ccc4ccncc43)nc2)ccn1 [Compound 99]
3.83 nM	–	COc1ccc(NC(=O)c2ccc(-n3ccc4ccncc43)nc2)cc1 [Compound 34, N-(4-methoxyphenyl)-6-(1H-pyrrolo[2,3-c]pyridin-1-yl)nicotinamide]
11.1 nM	–	Oc1ccc2nc(-n3ccc4ccncc43)ncc2c1 [Compound 24-5, 2-(1H-pyrrolo[2,3-c]pyridin-1-yl)quinazolin-6-ol]
3.17 nM	–	c1cnc(-c2ccc(-n3ccc4ccncc43)nc2)cn1 [Compound 64]
